Source: article PMC3405817 (Evidence-based Complementary and Alternative Medicine : eCAM, 2012)
Values after ≈ are worked out from the molar mass of the structure shown.

Tests used:
[1] = system: human promonocytic HL-CZ cells; assay: Cell viability assay (trypan blue), HL-CZ cells; conditions: 48 hours, trypan blue staining
[2] = Cell viability assay (trypan blue), BHK-21 cells; conditions: hamster, CC50 BHK-21, BHK-21 cells, trypan blue staining
[3] = system: BHK-21 cells; assay: Cell viability assay (trypan blue), BHK-21 cells; conditions: BHK-21 cells, 48 hours, trypan blue staining
[4] = system: virulent JEV strain Beijing-1; assay: Mouse protection assay against lethal JEV challenge; type: in vivo; conditions: BALB/c mice, i.c. JEV 1 × 10^5 pfu, 1 mg/kg i.c. at 2, 24, 48 h after infection
Method: Groups (n = 10) of 2-week-old BALB/c mice were intracerebrally infected with 1 × 10^5 pfu of virulent JEV strain Beijing-1 then underwent three intracerebral treatments with 30 μg/100 μL of I. indigotica extract or marker compound (1 mg/kg of body weight) using 100 μL syringes at 2, 24, and 48 h after infection. Two additional groups were infected with JEV and received PBS or DMSO (0.05%) treatment as solvent controls. Survival rates were monitored every day for one week.

[5] = system: JEV; assay: Virucidal activity assay; type: cell-based; conditions: Japanese encephalitis virus; JEV 10^5 pfu preincubated 60 min at 4°C, 1000-fold dilution, residual infectivity on BHK-21
Method: Virucidal assay was based on prior reports. […] A 1000-fold dilution of each extract/virus or compound/virus mixture was added onto BHK-21 cell monolayer in 6-well plates.

[6] = system: JEV; assay: Virus yield in JEV-infected HL-CZ cells by plaque assay; conditions: 10 μg/mL, JEV MOI 0.5, after 24 h incubation
[7] = system: JEV; assay: Virus attachment assay (4°C, BHK-21 monolayer); type: cell-based; conditions: Japanese encephalitis virus; JEV 120 pfu, 4°C 1 h on BHK-21 monolayer, residual infectivity by plaque assay
Method: After 3-day incubation at 37°C in a 5% CO2 incubator, plaques were stained, as described in plaque assay.

[8] = system: JEV; assay: Plaque reduction and time-of-addition assay in BHK-21 cells; conditions: Japanese encephalitis virus
[9] = Cell viability assay (trypan blue), HL-CZ cells; conditions: human, CC50 HL-CZ, trypan blue staining
[10] = BHK-21, 1 h, read-out: IC50 of posttreatment
[11] = BHK-21, 1 h, read-out: IC50 of simultaneous treatment
[12] = BHK-21, read-out: IC50 of pretreatment

C=C(C)[C@@H]1CC[C@]2(CO)CC[C@]3(C)[C@H](CC[C@@H]4[C@@]5(C)CC[C@H](O)C(C)(C)[C@@H]5CC[C@]43C)[C@@H]12 [Betulin, betulin]
CC50 HL-CZ [1]: 2.10 ± 0.78 µg/mL (≈ 4.74 µM)
CC50 at 48 h [2]: < 25 µg/mL
CC50 BHK-21 [3]: 13.30 ± 2.58 µg/mL (≈ 30 µM)

O=C1/C(=C2\Nc3ccccc3C2=O)Nc2ccccc21 [Indigo, indigo]
Survival rate on Day 6 after infection [4]: 50%
IC50 [5]: 3.03 ± 3.18 µg/mL (≈ 11.6 µM)
virus yield reduced [6]: approximately 40%
IC50 [7]: 5.15 ± 0.18 µg/mL (≈ 19.6 µM)
IC50 [8, 10]: > 50 µg/mL
IC50 [8, 11]: 37.5 ± 3.18 µg/mL (≈ 143 µM)
IC50 [8, 12]: 11.79 ± 0.1 µg/mL (≈ 45 µM)
CC50 at 48 h [9]: 99.41 ± 0.54 µg/mL (≈ 379 µM)
CC50 BHK-21 [3]: 86.88 ± 3.72 µg/mL (≈ 331 µM)
CC50 BHK-21 ([3]; listed as indigo): 26.88 µg/mL (≈ 102 µM)

C=C(C)[C@@H]1CC[C@]2(C)CC[C@]3(C)[C@H](CC[C@@H]4[C@@]5(C)CC[C@H](O)C(C)(C)[C@@H]5CC[C@]43C)[C@@H]12 [Lupeol, lupeol]
CC50 HL-CZ [1]: 3.44 ± 1.17 µg/mL (≈ 8.06 µM)
CC50 BHK-21 [3]: 9.53 ± 1.32 µg/mL (≈ 22.3 µM)

O=c1[nH]c2ccccc2o1 [2-Benzoxazolinone, 2-benzoxazolinone]
CC50 HL-CZ [1]: 67.33 ± 10.2 µg/mL (≈ 498 µM)
CC50 at 48 h [2]: < 25 µg/mL
CC50 BHK-21 [3]: 19.92 ± 1.57 µg/mL (≈ 147 µM)

O=C1Nc2ccccc2/C1=C1/Nc2ccccc2C1=O [Indirubin, indirubin]
Survival rate on Day 6 after infection [4]: 70%
IC50 [5]: 0.47 ± 2.83 µg/mL (≈ 1.79 µM)
virus yield reduced [6]: approximately 40%
IC50 [7]: 5.1 ± 1.32 µg/mL (≈ 19.4 µM)
IC50 [8, 10]: > 50 µg/mL
IC50 [8, 11]: 13.7 ± 2.83 µg/mL (≈ 52.2 µM)
IC50 [8, 12]: 23.5 ± 0.89 µg/mL (≈ 89.6 µM)
CC50 at 48 h [9]: 64.9 ± 1.08 µg/mL (≈ 247 µM)
CC50 at 48 h [2]: 57.5 µg/mL (≈ 219 µM)
CC50 BHK-21 [3]: >100 µg/mL

Nc1ncnc2c1ncn2[C@@H]1O[C@H](CO)[C@@H](O)[C@H]1O [Adenosine, adenosine]
CC50 HL-CZ [1]: 15.38 ± 1.05 µg/mL (≈ 57.6 µM)
CC50 at 48 h [9]: < 25 µg/mL
CC50 at 48 h [2]: < 25 µg/mL
CC50 BHK-21 [3]: 24.10 ± 2.57 µg/mL (≈ 90.2 µM)

O=C1c2ccccc2-n2c1nc1ccccc1c2=O [Tryptathrin, tryptanthrin]
CC50 HL-CZ [1]: 1.74 ± 0.34 µg/mL (≈ 7.01 µM)
CC50 BHK-21 [3]: 4.57 ± 0.26 µg/mL (≈ 18.4 µM)
